Results taken from patent US20260216348A1, “IRAK DEGRADATION AGENT AND USE THEREOF” (Increland, priority 2023, published 2026).

Columns and labels:
IMQ psoriasis model = assay: IMQ (imiquimod)-induced psoriasis model; type: in vivo, BALB/c mice; conditions: QD, Mean ± SD, n = 7; for PASI Score d 6: Model 8.85 ± 1.66; for ΔSkin Thickness Change (μm) d 6: Model 80.95 ± 6.16
Protocol: Male BALB/c mice, aged 6-8 weeks, were randomly divided into 9 groups after 1 week of acclimatization: blank control group, imiquimod model group (IMQ group, corresponding to the model groups in FIGS. 1 and 2), clobetasol propionate cream group (CLO group), TYKI (BMS-986165) group, IRAK4 protein degrader KT-474 (from patent WO2020113233) group (100 mg/kg), and the compound of the present disclosure (at an appropriate dose), with 6-7 mice in each group. One day before modeling, the hair on the backs of the mice was removed with depilatory cream, with a depilated area of 2×2 cm^2. On the day of modeling, IMQ cream was used for modeling, and the corresponding drugs were administered intragastrically for treatment. The compound of the present disclosure (at an appropriate dose) was administered intragastrically once daily, and IMQ cream was applied to the hairless area on the back and left ear of mice 2 h after the first administration. […] The blank group and the IMQ group were administered with vehicle intragastrically twice daily (in the morning and evening), with an 8-h interval between the two intragastric administrations. At 2 h after the first intragastric administration, vaseline and IMQ cream were applied topically to the depilated back and ears of the mice, respectively. The dosage of IMQ cream administered to the depilated area on the back and the left ear was 80 mg and 10 mg, respectively, and the mice in each group were administered the cream for 5 consecutive days.
Reference was made to the Psoriasis Area and Severity Index (PASI) scoring criteria. The psoriasis, erythema, and thickness of skin lesions on the back were scored from 0 to 4 every morning from day 1 of modeling, with the scoring criteria as shown in Table 28. The 3 were added up to obtain a total score, i.e., a total PASI score. The ear thickness of the left ear of the mouse was measured using a digital vernier caliper three times every morning from day 1 of modeling, to obtain a mean value.

[1] = tested on: DSS-induced enteritis model; assay: DSS-induced enteritis (colitis) model; type: in vivo, mice; conditions: po, QD, Model 10.33 ± 1.11, Mean ± SD, n = 7
Text: The experimental mice were pre-acclimatized in the animal facility for one week; at the beginning of the experiment, the mice were given medication intragastrically daily according to their body weight. After the completion of intragastric administration in each group, mice had direct access to water bottles for free drinking. The blank group received normal water, while the other groups received pre-prepared DSS water. Each afternoon, the mice's abdomens were massaged to stimulate defecation, and one fecal pellet was collected onto a white porcelain plate. Fecal consistency was judged and recorded according to Table 30. The fecal occult blood qualitative test kit (Yuanye Biotechnology, #R24187-300T) was used to test for occult blood in feces and the results were interpreted according to Table 31.

[2] = tested on: CIA-induced rheumatoid arthritis model; assay: CIA-induced rheumatoid arthritis model; type: in vivo, DBA/1J mice; conditions: QD, Model 12.31 ± 2.97, Mean ± SD, n = 7
Protocol: 1. DBA/1J mice, male, SPF grade, were pre-acclimatized in the animal facility for one week. 2. On day 1, for the primary immunization, 2 mg/mL bovine type II collagen was mixed thoroughly with an equal volume of complete Freund's adjuvant on ice using a homogenizer until fully emulsified. 100 μL of the collagen emulsion (final concentration 1 mg/mL) was intradermally injected at 2 cm from the base of the mouse tail. Medical iodophor was used to disinfect the tail after injection to prevent tail necrosis, which was conducted for 3 consecutive days. 3. On day 21, bovine type II collagen solution was thoroughly mixed and emulsified with an equal volume of Freund's incomplete adjuvant, using the same method as the primary immunization. 4. On day 26, LPS was administered intraperitoneally at a dose of 50 μg/animal to induce disease. 5. On day 28, the affected mice were scored according to Table 33 and the diameter of their ankle joints was measured. Mice were randomly grouped and treated with medication based on their scores and ankle diameter.

Structure (SMILES)	PASI Score d 6 (IMQ psoriasis model; 3 mg/kg)	ΔSkin Thickness Change (μm) d 6 (IMQ psoriasis model; 3 mg/kg) [μm]	PASI Score d 6 (IMQ psoriasis model; 10 mg/kg)	ΔSkin Thickness Change (μm) d 6 (IMQ psoriasis model; 10 mg/kg) [μm]	PASI Score d 6 (IMQ psoriasis model; 30 mg/kg)	ΔSkin Thickness Change (μm) d 6 (IMQ psoriasis model; 30 mg/kg) [μm]	DAI Score d 8 ([1]; 3 mpk)	DAI Score d 8 ([1]; 10 mpk)	DAI Score d 8 ([1]; 30 mpk)	DAI Score d 42 ([2]; 15 mg/kg)	DAI Score d 42 ([2]; 45 mg/kg)
CN(C)c1cc2nn([C@H]3CC[C@H](CN4CCC(n5cc6c(F)cc(N7CCC(=O)NC7=O)cc6n5)CC4)CC3)cc2cc1NC(=O)c1cnn2cccnc12 [TM-174]	6.69 ± 1.07	58.10 ± 17.31	7.31 ± 1.87	59.29 ± 18.23	4.38 ± 1.24	43.81 ± 16.66	3.57 ± 2.26	2.71 ± 1.39	2.71 ± 0.70		
CN(C)c1cc2nn([C@H]3CC[C@H](CN4C[C@@H](n5cc6cc(N7CCC(=O)NC7=O)ccc6n5)[C@@H](F)C4)CC3)cc2cc1NC(=O)c1cnn2cccnc12 [TM-205]	7.29 ± 1.99	65.71 ± 10.23	6.75 ± 1.28	52.62 ± 9.59	4.84 ± 0.80	53.10 ± 12.95	4.86 ± 1.55	3.29 ± 1.67	2.71 ± 0.70		
CN(C)c1cc2nn([C@H]3CC[C@H](CN4CC[C@@H](n5cc6cc(C7CCC(=O)NC7=O)c(F)cc6n5)[C@@H](F)C4)CC3)cc2cc1NC(=O)c1cnn2cccnc12 (some centres unmarked) [TM-135]										11.17 ± 2.36	9.60 ± 3.33
